The values below come from DBAASP.

Each structure is given as a SMILES string. ≈ marks a conversion by molar mass, not a printed value.

Among the test systems are Acinetobacter baumannii; Escherichia coli LEC 001; Klebsiella pneumoniae M6; Escherichia coli 319238; Staphylococcus aureus 15; Escherichia coli 078; Streptococcus agalactiae; Escherichia coli UB1005; Vibrio anguillarum; Aeromonas salmonicida.
Holding throughout (experiment): ≥ marks a high value that may be exact or a test limit, other limits are often not marked, values filed in µg/mL are converted to µM
The test system of assay [1] is Escherichia coli CFI_161_NDM.
Assay [2] relates to Xanthomonas axonopodis pv. phaseoli.
Assay [3] relates to Acinetobacter baumannii NCTC 13302.
Assay [4] has as its system Escherichia coli CFI_160_KPC2.
The subject of assay [5] is Pseudomonas aeruginosa PAO1.
For assay [6], the system named is Pseudomonas syringae pv. tomato.
The test system of assay [7] is Enterococcus faecalis NCTC 12204.
Assay [8] concerns Acinetobacter baumannii ATCC 17987.
For assay [9], the system named is Acinetobacter baylyi ADP1.
Assay [10] concerns Acinetobacter baumannii NCTC 13424.
The test system of assay [11] is Enterococcus faecalis NCTC 12201.
The test system of assay [12] is Pseudomonas aeruginosa NCTC 13437.
Assay [13] deals with Acinetobacter baumannii AYE.
Assay [14] concerns Klebsiella pneumoniae NCTC 13368.
In assay [15] the test system is Staphylococcus aureus NCTC 9144.
Assay [16] relates to Escherichia coli NCTC 12923.
In assay [17] the test system is Enterococcus faecalis NCTC 775.
For assay [18], the system named is Salmonella enterica subsp. enterica serovar Typhimurium C77-31.
In assay [19] the test system is Staphylococcus epidermidis ATCC 12228.
Assay [20] has as its system Streptococcus thermophilus YM-C.
The test system of assay [21] is Lacticaseibacillus rhamnosus 7469.
Assay [22] has as its system Streptococcus agalactiae CICC 10465.
The subject of assay [23] is Pseudomonas aeruginosa ATCC 27853.
The test system of assay [24] is Escherichia coli ATCC 25922.
Assay [25] has as its system Salmonella enterica subsp. enterica serovar Typhimurium ATCC 14028.
Assay [26] relates to Salmonella enterica subsp. enterica serovar Pullorum ATCC 7913.
The subject of assay [27] is Staphylococcus aureus ATCC 29213.
For assay [28], the system named is Staphylococcus aureus ATCC 25923.
The subject of assay [29] is Mannheimia haemolytica 82-25.
In assay [30] the test system is Salmonella enterica serovar typhimurium MS7953s.
Assay [31] deals with Salmonella enterica subsp. enterica serovar Typhimurium ATCC 14028s.
The subject of assay [32] is Staphylococcus epidermidis C621.
The subject of assay [33] is Pseudomonas aeruginosa Z61.
For assay [34], the system named is Pseudomonas aeruginosa K799.
The subject of assay [35] is Pseudomonas aeruginosa ATCC 47085.
Assay [36] concerns Acinetobacter baumannii ATCC 19606.
Assay [37] deals with Escherichia coli D31 CGSC 5165.
Assay [38] concerns Staphylococcus aureus ATCC 35556.

One may read the MIC as the lowest concentration that inhibits growth of the organism. A higher MIC goes with a less susceptible organism.

On to `CC[C@H](C)[C@H](NC(=O)[C@H](CCCCN)NC(=O)[C@H](CCC(=O)O)NC(=O)[C@H](CCCCN)NC(=O)CNC(=O)[C@H](C)N)C(=O)N[C@@H](CCCN=C(N)N)C(=O)N[C@@H](CCCCN)C(=O)N[C@@H](CCCCN)C(=O)N[C@@H](CC(C)C)C(=O)N[C@@H](CCCCN)C(=O)N[C@@H](CC(N)=O)C(=O)N[C@@H](CCC(=O)O)C(=O)N[C@H](C(=O)N[C@@H](CCCCN)C(=O)N[C@@H](CCCCN)C(=O)N[C@@H](CCCCN)C(=O)N[C@@H](Cc1c[nH]c2ccccc12)C(=O)N[C@@H](CCCN=C(N)N)C(=O)N[C@@H](CCCCN)C(=O)N[C@@H](C)C(=O)N[C@H](C(=O)N[C@H](C(=O)N[C@@H](C)C(=O)N[C@@H](Cc1c[nH]c2ccccc12)C(=O)O)[C@@H](C)CC)C(C)C)[C@@H](C)CC` [AGKEKIRKKLKNEIKKKWRKAVIAW], for which the MIC is 1.31 µM (≈ 4 µg/mL) in [1]; 0.164 µM (≈ 0.5 µg/mL) in assay [2]; 0.656 µM (≈ 2 µg/mL) in assay [3]; 2.62 µM (≈ 8 µg/mL) in assay [4]; 42 µM (≈ 128 µg/mL) in [5]; 0.328 µM (≈ 1 µg/mL) in [6]. The MIC against Acinetobacter baumannii is 0.656 µM (≈ 2 µg/mL); in assay [7] it was 21 µM (≈ 64 µg/mL); in [8], 2.62 µM (≈ 8 µg/mL); in [9], 1.31 µM (≈ 4 µg/mL); with Escherichia coli LEC 001, 5.24 µM (≈ 16 µg/mL); in assay [10] it was 5.24 µM (≈ 16 µg/mL). For the same compound, the MIC was at least 42 µM in assay [11]; 21 µM (≈ 64 µg/mL) against Klebsiella pneumoniae M6; at least 42 µM in assay [12]; 0.656 µM (≈ 2 µg/mL) in [13]; 5.24 µM (≈ 16 µg/mL) against Escherichia coli 319238; at least 42 µM in assay [14]. The MIC is 10.5 µM (≈ 32 µg/mL) in assay [15], 0.656 µM (≈ 2 µg/mL) in assay [16], at least 42 µM against Staphylococcus aureus 15 and at least 42 µM in assay [17].
As to `CC[C@H](C)[C@H](NC(=O)[C@H](CC(C)C)NC(=O)[C@@H](NC(=O)[C@@H](N)CC(=O)O)[C@@H](C)CC)C(=O)N[C@H](C(=O)N[C@H](C(=O)NCC(=O)NCC(=O)NCC(=O)N[C@@H](CO)C(=O)NCC(=O)N[C@@H](CCCCN)C(=O)N[C@@H](CCC(=O)O)C(=O)N[C@@H](CCCN=C(N)N)C(=O)N[C@@H](CCCCN)C(=O)N[C@@H](CCCCN)C(=O)N[C@@H](CCCN=C(N)N)C(=O)N[C@@H](CCCN=C(N)N)C(=O)N[C@@H](CCCN=C(N)N)C(N)=O)C(C)C)[C@@H](C)CC` [DILIIVGGGSGKERKKRRR], the MIC in assay [18] is at least 64 µM; in assay [19] it was over 64 µM; in assay [20] it was at least 64 µM; in assay [21], at least 64 µM; in assay [22], 4 µM (≈ 8.55 µg/mL); against Escherichia coli 078 it was at least 64 µM. For the same compound, the MIC was over 64 µM in assay [23]; over 64 µM in assay [24]; over 64 µM in [25]; at least 64 µM in [26]; 4 µM (≈ 8.55 µg/mL) in the assay on Streptococcus agalactiae; over 64 µM in assay [27]. Also, the MIC in assay [28] is over 64 µM; in the assay with Escherichia coli UB1005 it was at least 64 µM.
As to `C[C@H](NC(=O)CN)C(=O)N[C@@H](CC(=O)O)C(=O)N[C@@H](CC(=O)O)C(=O)N[C@@H](CC(=O)O)C(=O)N[C@@H](CC(=O)O)C(=O)N[C@@H](CC(=O)O)C(=O)O` [GADDDDD], in assay [29], the minimum inhibitory concentration (MIC) is 30 µM (≈ 21.6 µg/mL). This counts as double-digit micromolar.
Consider `CC(C)C[C@H](NC(=O)[C@H](Cc1ccc(O)cc1)NC(=O)[C@H](Cc1cnc[nH]1)NC(=O)[C@@H](NC(=O)[C@H](CC(C)C)NC(=O)[C@H](C)NC(=O)[C@H](C)NC(=O)[C@H](CCCCN)NC(=O)CNC(=O)[C@@H](NC(=O)[C@H](Cc1cnc[nH]1)NC(=O)[C@H](CCCCN)NC(=O)CNC(=O)[C@@H](NC(=O)[C@H](Cc1cnc[nH]1)NC(=O)[C@H](C)NC(=O)[C@H](C)NC(=O)[C@H](CCCCN)NC(=O)[C@H](CCCCN)NC(=O)[C@H](Cc1ccccc1)NC(=O)[C@H](Cc1ccccc1)NC(=O)[C@H](CO)NC(=O)CNC(=O)[C@H](Cc1c[nH]c2ccccc12)NC(=O)CNC(=O)[C@@H](N)CCCCN)C(C)C)C(C)C)[C@@H](C)O)C(N)=O` [KGWGSFFKKAAHVGKHVGKAALTHYL], for which the MIC came to 0.176 µM (≈ 0.5 µg/mL) in assay [30]; 0.704 µM (≈ 2 µg/mL) against Vibrio anguillarum; 0.352 µM (≈ 1 µg/mL) in the assay with Aeromonas salmonicida; 0.704 µM (≈ 2 µg/mL) in [31]; 0.704 µM (≈ 2 µg/mL) in assay [32]; 0.704 µM (≈ 2 µg/mL) in assay [33]. Further, the MIC in assay [34] was determined as 0.704 µM (≈ 2 µg/mL).
For the compound `CC[C@H](C)[C@H](NC(=O)[C@H](CCCCN)NC(=O)CNC(=O)[C@H](CC(C)C)NC(=O)[C@@H](NC(=O)[C@H](C)NC(=O)[C@H](CCCCN)NC(=O)CNC(=O)[C@H](C)NC(=O)CNC(=O)[C@H](CCCCN)NC(=O)[C@H](CCSC)NC(=O)[C@H](CCCCN)NC(=O)[C@@H](NC(=O)[C@H](Cc1c[nH]c2ccccc12)NC(=O)[C@H](CC(C)C)NC(=O)[C@H](CCCCN)NC(=O)[C@H](CCCCN)NC(=O)[C@H](CC(C)C)NC(=O)[C@@H](N)CC(C)C)[C@@H](C)O)C(C)C)C(=O)N[C@@H](CCCCN)C(=O)NCC(=O)N[C@@H](CC(C)C)C(=O)N[C@@H](CC(C)C)C(=O)O` [LLKKLWTKMKGAGKAVLGKIKGLL], the MIC in assay [35] is 3.75 µM (≈ 9.73 µg/mL); in assay [36], 0.94 µM (≈ 2.44 µg/mL); in assay [37] it was 1.88 µM (≈ 4.88 µg/mL); in assay [38] it was 3.75 µM (≈ 9.73 µg/mL).
